Legend:
[1] = system: Gene 1 mRNA; assay: Gene 1 mRNA expression in brain tissue by RT-PCR; format: in vivo, mice; settings: for Gene 1 expression amount in the nucleus accumbens induced by methamphetamine: methamphetamine 2 mg/kg s.c. six days, R(+)-SCH23390 0.1 mg/kg i.p. or raclopride 2 mg/kg i.p. 30 minutes before
Protocol: Antisense nucleotide of Gene 1 was continuously infused into the mouse cerebral ventricle by using a mini osmotic pump and methamphetamine was administered to the animals every day.
A mouse was fed with 6% ethanol or water (control) for 12 days, and then was subjected to decapitation. The amount of Gene 1 mRNA in the nucleus accumbens was measured by a RT-PCR method.

[2] = target: T1, human dopamine transporter (Homo sapiens, UniProt Q01959); assay: Fluorescence immunostaining of intracellular movement of dopamine transporter in PC12 cell; settings: before and after methamphetamine was acted
T1 construct: expressed in transfected cells; host or cells: PC12 cells
Protocol: In the PC12 cell, the human dopamine transporter was forcedly expressed and fluorescence immunostaining of a human dopamine transporter was carried out before and after methamphetamine was acted.

[3] = system: mice; assay: Locomotor activity test; format: in vivo; settings: methamphetamine administered to mice every day (FIG. 1: 2 mg/kg, s.c., six days), hydrochloride
Protocol: In the test, ICR male mice (Japan SLC, Hamamatsu) that were 8-week old when the test was started. The mice were bred under conditions of light and dark cycle of 12 hours (light up: A.M 8:00), room temperature 23±1° C., and humidity 50±5%. The mice were freely fed with food (CE2: CLEA Japan, Tokyo) and water. Note here that this research program was approved by Animal Research Committee, Nagoya University School of Medicine and carried out in accordance with Guideline of Animal Research of Nagoya University School of Medicine and Principles of Laboratory Animal Care (National Institutes of Health Publication 85-23, 1985).
In the test, an acrylic cage (28 cm in length, 17 cm in width and 13 cm in height) that is the same kind as the home case was used. On the floor, a small amount of breeding chip was placed. […]
On days 1 to 3, mice were placed in a measurement cage for two hours so that the mice became accustomed to the measurement environment. […] Right after the administration, the total locomotor activity for two hours was measured.
Each of the antisense nucleotide of Gene 1 and 2 was infused into the mice cerebral ventricle continuously by using a mini osmotic pump and methamphetamine was administered to the animals every day. The locomotor activity on the first, third and fifth days was measured. […] The locomotor activity was measured for two hours. […]

[4] = system: Genes 1 to 3 mRNA; assay: Expression of Genes 1 to 3 mRNA by RT-PCR / real time RT-PCR after methamphetamine; format: in vivo, mice
Excerpt: Furthermore, when the increase of the expression amount was examined by a real time RT-PCR method, the expression amount was increased in the methamphetamine-administered cortex of frontal lobe, nucleus accumbens and striatum, respectively (FIGS. 10 to 12).

[5] = system: mouse (C57black6) nucleus accumbens; assay: cDNA subtraction of nucleus accumbens mRNA after methamphetamine; format: in vivo; settings: methamphetamine 10 consecutive days, five genes incl. Gene 1, Gene 2, Gene 3 (Piccolo)
Protocol: By using RNeasy mini kit (QIAGEN), mRNA was prepared by the following procedure. Mouse brain was taken out and the tissue was divided so as to be 30 mg or less. The brain tissue was dissolved in a solution containing a protein denaturizing agent and centrifuged with a spin column. Ethanol precipitation was repeated. Finally, mRNA was purified with silica gel.
The cDNA subtraction was carried out by using CLONTECH PCR-Select™ cDNA Subtraction Kit (CLONTECH) according to the attached instruction manual.
Methamphetamine-administered mice show hyperactivity, and when methamphetamine is administered to mice every day, the degree of hyperactivity is increased. This can be thought to be a mental disorder accompanying drug dependence (FIG. 1). Then, mRNA was taken out from the mouse (C57black6) nucleus accumbens to which methamphetamine had been administered for 10 consecutive days. Based on this, cDNA subtraction (CLONTECH) was carried out. In mice to which methamphetamine had been administered, a gene in which mRNA expression amount increased by 20 times or more than that of a control group was searched. As a result, five genes satisfy the requirement (FIG. 2). In the genes, three genes except for CREB3 and Odz4 were used for the later research. For convenience of description, each gene is referred to as Gene 1, Gene 2 and Gene 3 (Piccolo).

T1 sequence (Q01959 whole entry): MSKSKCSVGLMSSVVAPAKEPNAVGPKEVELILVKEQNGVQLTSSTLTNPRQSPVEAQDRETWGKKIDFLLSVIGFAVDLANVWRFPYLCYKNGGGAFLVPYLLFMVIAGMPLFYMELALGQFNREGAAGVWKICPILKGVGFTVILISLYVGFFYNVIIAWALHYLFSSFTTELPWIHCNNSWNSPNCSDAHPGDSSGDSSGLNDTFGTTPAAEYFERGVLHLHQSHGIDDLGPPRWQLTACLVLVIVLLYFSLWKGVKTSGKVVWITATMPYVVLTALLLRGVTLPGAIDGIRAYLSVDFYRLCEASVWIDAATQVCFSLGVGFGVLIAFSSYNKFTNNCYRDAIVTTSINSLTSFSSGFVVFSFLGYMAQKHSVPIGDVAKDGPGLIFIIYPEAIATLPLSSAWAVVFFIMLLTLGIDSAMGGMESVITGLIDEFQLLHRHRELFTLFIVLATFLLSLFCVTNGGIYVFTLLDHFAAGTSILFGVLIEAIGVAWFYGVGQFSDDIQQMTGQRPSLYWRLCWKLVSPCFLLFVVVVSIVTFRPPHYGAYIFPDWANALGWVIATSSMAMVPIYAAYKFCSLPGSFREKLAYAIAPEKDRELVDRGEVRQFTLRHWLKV

## CN1CCc2cc(Cl)c(O)cc2[C@@H](c2ccccc2)C1 [R(+)-SCH23390]
[1]
  Gene 1 expression amount in the nucleus accumbens induced by methamphetamine: significant difference was observed

## CCO [ethanol]
[1]; 6% ethanol fed for 12 days vs water
  Gene 1 mRNA amount in the nucleus accumbens: no significant correlation

## CN[C@@H](C)Cc1ccccc1.Cl [methamphetamine, methamphetamine hydrochloride]
[2]
  intracellular movement of the human dopamine transporter: intracellular movement of the human dopamine transporter was observed
[3]
  locomotor activity: enhanced
[3]; listed as Methamphetamine
  locomotor activity: hyperactivity
[4]; methamphetamine administered group compared with control group, all primer combinations
  mRNA of Genes 1 to 3 (RT-PCR): increase of mRNA was observed
[4]; methamphetamine-administered cortex of frontal lobe, nucleus accumbens and striatum
  expression amount of Genes 1 to 3 (real time RT-PCR): increased
[5]
  mRNA expression amount increase over control group: ≥ 20 times

## CN1CCCC1c1cccnc1 (centres unmarked) [nicotine]
[1]; nicotine 0.05-1.0 mg/kg s.c. 12 days
  Gene 1 mRNA amount in the nucleus accumbens: correlation between the administration of nicotine and the expression amount of Gene 1 was observed

## c1ccc(C2(N3CCCCC3)CCCCC2)cc1 [phencyclidine]
[1]; phencyclidine 10 mg/kg s.c. 14 days
  Gene 1 mRNA amount in the cortex of frontal lobe: no significant correlation

## CCN1CCC[C@H]1CNC(=O)c1c(O)c(Cl)cc(Cl)c1OC [raclopride]
[1]
  Gene 1 expression amount in the nucleus accumbens induced by methamphetamine: significant difference was observed

From patent publication US7776538B2, “Method for diagnosing methamphetamine dependence” (National University Corporation Nagoya University, priority 2005, dated 2010)
